{"source": "patent US11312712B2", "about": "“Azabenzimidazoles and their use as AMPA receptor modulators” (Janssen Pharmaceutica NV, priority 2015, dated 2022)", "data": [{"target": "GluA1o-γ8 (GRIA1o-CACNG8 fusion construct) (Homo sapiens (Human), UniProt P42261+Q8WXS5)", "sequence (P42261 other isoform, or with tags, fused parts or gaps)": "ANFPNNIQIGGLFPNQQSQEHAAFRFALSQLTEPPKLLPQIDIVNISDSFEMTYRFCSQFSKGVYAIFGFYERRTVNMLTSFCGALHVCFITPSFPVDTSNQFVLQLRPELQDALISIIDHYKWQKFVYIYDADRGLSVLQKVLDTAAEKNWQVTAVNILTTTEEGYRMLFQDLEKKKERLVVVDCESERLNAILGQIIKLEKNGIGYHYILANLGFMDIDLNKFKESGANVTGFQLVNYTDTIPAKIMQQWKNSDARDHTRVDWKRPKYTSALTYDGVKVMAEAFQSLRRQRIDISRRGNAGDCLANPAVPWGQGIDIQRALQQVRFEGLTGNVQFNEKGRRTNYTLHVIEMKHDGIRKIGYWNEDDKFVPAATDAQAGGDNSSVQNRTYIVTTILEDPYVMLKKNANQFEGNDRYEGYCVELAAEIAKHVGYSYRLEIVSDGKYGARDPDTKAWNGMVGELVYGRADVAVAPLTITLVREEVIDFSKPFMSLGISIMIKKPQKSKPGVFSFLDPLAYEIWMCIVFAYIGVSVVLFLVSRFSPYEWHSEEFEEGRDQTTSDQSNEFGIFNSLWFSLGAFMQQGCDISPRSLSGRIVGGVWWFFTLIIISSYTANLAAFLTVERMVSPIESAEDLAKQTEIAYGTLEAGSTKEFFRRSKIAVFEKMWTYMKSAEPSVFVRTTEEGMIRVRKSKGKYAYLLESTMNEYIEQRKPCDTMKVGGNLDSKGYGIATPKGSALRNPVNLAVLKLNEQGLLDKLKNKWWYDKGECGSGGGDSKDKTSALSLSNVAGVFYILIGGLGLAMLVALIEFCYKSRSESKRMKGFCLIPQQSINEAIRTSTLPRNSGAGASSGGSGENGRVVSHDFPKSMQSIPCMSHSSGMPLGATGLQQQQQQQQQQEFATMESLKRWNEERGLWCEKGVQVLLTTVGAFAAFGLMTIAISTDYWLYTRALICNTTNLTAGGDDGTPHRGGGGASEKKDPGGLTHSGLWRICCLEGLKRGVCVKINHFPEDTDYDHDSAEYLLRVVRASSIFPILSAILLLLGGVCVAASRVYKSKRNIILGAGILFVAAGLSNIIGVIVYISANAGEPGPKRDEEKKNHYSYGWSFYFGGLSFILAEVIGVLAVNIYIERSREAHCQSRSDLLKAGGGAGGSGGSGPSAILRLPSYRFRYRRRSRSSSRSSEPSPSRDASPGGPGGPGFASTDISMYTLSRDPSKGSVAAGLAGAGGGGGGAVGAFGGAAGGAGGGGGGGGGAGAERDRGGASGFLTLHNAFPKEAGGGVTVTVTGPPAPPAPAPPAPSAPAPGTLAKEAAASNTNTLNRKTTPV", "experiment": "Calcium flux assay (FLIPR), inhibition of TARP γ8 dependent AMPA receptor activity", "assay_type": "cell-based", "details": "GluA1o-γ8 (GRIA1o-CACNG8 fusion) in HEK293 cells, calcium flux after 15 μM glutamate", "in_short": "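HEK293 cells stably expressing a 1:1 GRIA1o–CACNG8 fusion were loaded with Calcium-5/6 dye plus compound in pH 7.4 HEPES-buffered saline. FLIPR calcium flux after 15 μM glutamate was normalized to untreated and 10 μM CP465022 controls, and a four-parameter logistic fit gave pIC50.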", "units": {"IC50": "nM"}, "values": [{"smiles": "Cc1cc(-n2c(C(C)C)nc3ccc(C(F)(F)F)nc32)cc2cn[nH]c12", "note": "[Example 198, 2-Isopropyl-3-(7-methyl-1H-indazol-5-yl)-5-(trifluoromethyl)imidazo[4,5-b]pyridine]", "IC50": 0.0316}, {"smiles": "FC(F)(F)c1nc2cccnc2n1-c1cc(Cl)c2[nH]ncc2c1", "note": "[Example 199, 3-(7-Chloro-1H-indazol-5-yl)-2-(trifluoromethyl)imidazo[4,5-b]pyridine]", "IC50": 2}, {"smiles": "CC(C)c1nc2cccnc2n1-c1cc(Cl)c2[nH]ncc2c1", "note": "[Example 200, 3-(7-Chloro-1H-indazol-5-yl)-2-isopropyl-imidazo[4,5-b]pyridine]", "IC50": 6.31}, {"smiles": "Cc1ccnc2c1nc(C(F)(F)F)n2-c1ccc2[nH]ncc2c1", "note": "[Example 201, 3-(1H-indazol-5-yl)-7-methyl-2-(trifluoromethyl)imidazo[4,5-b]pyridine]", "IC50": 100}, {"smiles": "Cc1ccnc2c1nc(C(F)(F)F)n2-c1cc(Cl)c2[nH]ncc2c1", "note": "[Example 202, 3-(7-Chloro-1H-indazol-5-yl)-7-methyl-2-(trifluoromethyl)imidazo[4,5-b]pyridine]", "IC50": 0.631}, {"smiles": "Cc1ccnc2c1nc(C(F)(F)F)n2-c1cc(C)c2[nH]ncc2c1", "note": "[Example 203, 7-Methyl-3-(7-methyl-1H-indazol-5-yl)-2-(trifluoromethyl)imidazo[4,5-b]pyridine]", "IC50": 5.01}, {"smiles": "FC(F)(F)c1ccc2nc(C(F)(F)F)n(-c3cnc4[nH]ncc4c3)c2n1", "note": "[Example 204, 3-(1H-pyrazolo[3,4-b]pyridin-5-yl)-2,5-bis(trifluoromethyl)imidazo[4,5-b]pyridine]", "IC50": 12.6}, {"smiles": "[O-][n+]1cc(-n2c(C(F)(F)F)nc3ccc(C(F)(F)F)nc32)cc2cn[nH]c21", "note": "[Example 205, 3-(7-Oxido-1H-pyrazolo[3,4-b]pyridin-7-ium-5-yl)-2,5-bis(trifluoromethyl)imidazo[4,5-b]pyridine]", "IC50": 398}, {"smiles": "O=c1[nH]c2ccc(-n3c(C(F)(F)F)nc4ccc(C(F)F)nc43)cc2s1", "note": "[Example 206, 6-[5-(difluoromethyl)-2-(trifluoromethyl)imidazo[4,5-b]pyridin-3-yl]-3H-1,3-benzothiazol-2-one]", "IC50": 0.316}, {"smiles": "FC(F)c1ccc2nc(C(F)F)n(-c3cc(Cl)c4[nH]ncc4c3)c2n1", "note": "[Example 207, 3-(7-Chloro-1H-indazol-5-yl)-2,5-bis(difluoromethyl)imidazo[4,5-b]pyridine]", "IC50": 0.0631}, {"smiles": "FC(F)(F)c1nc2ccc(C3CCC3)nc2n1-c1ccc2[nH]ncc2c1", "note": "[Example 208, 5-Cyclobutyl-3-(1H-indazol-5-yl)-2-(trifluoromethyl)imidazo[4,5-b]pyridine]", "IC50": 0.158}, {"smiles": "CC(C)c1nc2ccc(C(F)F)nc2n1-c1ccc2[nH]ncc2c1", "note": "[Example 210, 5-(Difluoromethyl)-3-(1H-indazol-5-yl)-2-isopropyl-imidazo[4,5-b]pyridine]", "IC50": 0.631}, {"smiles": "CC(C)c1nc2ccc(C(C)(F)F)nc2n1-c1ccc2[nH]ncc2c1", "note": "[Example 211, 5-(1,1-Difluoroethyl)-3-(1H-indazol-5-yl)-2-isopropyl-imidazo[4,5-b]pyridine]", "IC50": 5.01}, {"smiles": "Cc1cc(-n2c(C(F)F)nc3ccc(C(F)F)nc32)cc2cn[nH]c12", "note": "[Example 212, 2,5-Bis(difluoromethyl)-3-(7-methyl-1H-indazol-5-yl)imidazo[4,5-b]pyridine]", "IC50": 0.0794}, {"smiles": "Cc1ccc2nc(-c3ccnc(F)c3)n(-c3cc(C)c4[nH]ncc4c3)c2n1", "note": "[Example 213, 2-(2-Fluoro-4-pyridyl)-5-methyl-3-(7-methyl-1H-indazol-5-yl)imidazo[4,5-b]pyridine]", "IC50": 0.501}, {"smiles": "Cc1cc(-n2c(C(C)C)nc3c(N(C)CCF)cc(C(F)(F)F)nc32)cc2cn[nH]c12", "note": "[Example 214, N-(2-Fluoroethyl)-2-isopropyl-N-methyl-3-(7-methyl-1H-indazol-5-yl)-5-(trifluoromethyl)imidazo[4,5-b]pyridin-7-amine]", "IC50": 0.158}, {"smiles": "O=C1Nc2ccc(-n3c(-c4ccnc(F)c4)nc4ccc(C(F)(F)F)nc43)cc2C1=O", "note": "[Example 215, 5-[2-(2-Fluoro-4-pyridyl)-5-(trifluoromethyl)imidazo[4,5-b]pyridin-3-yl]indoline-2,3-dione]", "IC50": 1580}, {"smiles": "Cc1cc(-n2c(-c3ccnc(F)c3)nc3ccc(C(F)(F)F)nc32)cc2cn[nH]c12", "note": "[Example 217, 2-(2-Fluoro-4-pyridyl)-3-(7-methyl-1H-indazol-5-yl)-5-(trifluoromethyl)imidazo[4,5-b]pyridine]", "IC50": 0.0501}, {"smiles": "FCCOc1cc(C(F)(F)F)nc2c1nc(C(F)(F)F)n2-c1cc(Cl)c2[nH]ncc2c1", "note": "[Example 218, 3-(7-Chloro-1H-indazol-5-yl)-7-(2-fluoroethoxy)-2,5-bis(trifluoromethyl)imidazo[4,5-b]pyridine]", "IC50": 0.0501}, {"smiles": "OC/C=C/c1cc(-n2c(C(F)(F)F)nc3ccc(C(F)(F)F)nc32)cc2cn[nH]c12", "note": "[Example 219, (E)-3-(5-(2,5-Bis(trifluoromethyl)-3H-imidazo[4,5-b]pyridin-3-yl)-1H-indazol-7-yl)prop-2-en-1-ol]", "IC50": 15.8}, {"smiles": "OCCCc1cc(-n2c(C(F)(F)F)nc3ccc(C(F)(F)F)nc32)cc2cn[nH]c12", "note": "[Example 220, 3-(5-(2,5-Bis(trifluoromethyl)-3H-imidazo[4,5-b]pyridin-3-yl)-1H-indazol-7-yl)propan-1-ol]", "IC50": 158}, {"smiles": "CCCc1cc(-n2c(C(F)(F)F)nc3ccc(C(F)(F)F)nc32)cc2cn[nH]c12", "note": "[Example 221, 3-(7-Propyl-1H-indazol-5-yl)-2,5-bis(trifluoromethyl)-3H-imidazo[4,5-b]pyridine]", "IC50": 0.126}, {"smiles": "Cc1cc(-n2c(C(F)(F)F)nc3ccc(/C=C/CO)nc32)cc2cn[nH]c12", "note": "[Example 222, (E)-3-(3-(7-Methyl-1H-indazol-5-yl)-2-(trifluoromethyl)-3H-imidazo[4,5-b]pyridin-5-yl)prop-2-en-1-ol]", "IC50": 31.6}, {"smiles": "Cc1cc(-n2c(C(F)(F)F)nc3ccc(CCCO)nc32)cc2cn[nH]c12", "note": "[Example 223, 3-(3-(7-Methyl-1H-indazol-5-yl)-2-(trifluoromethyl)-3H-imidazo[4,5-b]pyridin-5-yl)propan-1-ol]", "IC50": 100}, {"smiles": "CCCc1ccc2nc(C(F)(F)F)n(-c3cc(C)c4[nH]ncc4c3)c2n1", "note": "[Example 224, 3-(7-Methyl-1H-indazol-5-yl)-5-propyl-2-(trifluoromethyl)-3H-imidazo[4,5-b]pyridine]", "IC50": 0.158}, {"smiles": "Oc1cc(-c2nc3ccc(C(F)(F)F)nc3n2-c2ccc3[nH]ncc3c2)ccn1", "note": "[Example 225, 4-[3-(1H-Indazol-5-yl)-5-(trifluoromethyl)imidazo[4,5-b]pyridin-2-yl]pyridin-2-ol]", "IC50": 251}, {"smiles": "FC(F)(F)c1ccc2ncn(-c3ccc4[nH]ncc4c3)c2n1", "note": "[Example 226, 3-(1H-Indazol-5-yl)-5-(trifluoromethyl)imidazo[4,5-b]pyridine]", "IC50": 398}, {"smiles": "FC(F)c1ccc2nc(C3CC3)n(-c3cc(Cl)c4[nH]ncc4c3)c2n1", "note": "[Example 227, 3-(7-Chloro-1H-indazol-5-yl)-2-cyclopropyl-5-(difluoromethyl)imidazo[4,5-b]pyridine]", "IC50": 0.0501}, {"smiles": "Cc1cc(-n2c(-c3ccc(F)cc3)nc3ccc(C(F)F)nc32)cc2cn[nH]c12", "note": "[Example 228, 5-(Difluoromethyl)-2-(4-fluorophenyl)-3-(7-methyl-1H-indazol-5-yl)imidazo[4,5-b]pyridine]", "IC50": 0.0158}, {"smiles": "Fc1ccc(-c2nc3ccc(C(F)F)nc3n2-c2cc(Cl)c3[nH]ncc3c2)cc1", "note": "[Example 229, 3-(7-Chloro-1H-indazol-5-yl)-5-(difluoromethyl)-2-(4-fluorophenyl)imidazo[4,5-b]pyridine]", "IC50": 0.00631}, {"smiles": "O=c1[nH]c2ccc(-n3c(C(F)(F)F)nc4c(N5CCOCC5)cc(C(F)(F)F)nc43)cc2s1", "note": "[Example 230, 6-[7-Morpholino-2,5-bis(trifluoromethyl)imidazo[4,5-b]pyridin-3-yl]-3H-1,3-benzothiazol-2-one]", "IC50": 1}, {"smiles": "FC(F)(F)c1cc(N2CCOCC2)c2nc(C(F)(F)F)n(-c3ccc4[nH]ncc4c3)c2n1", "note": "[Example 231, 4-[3-(1H-Indazol-5-yl)-2,5-bis(trifluoromethyl)imidazo[4,5-b]pyridin-7-yl]morpholine]", "IC50": 3.98}, {"smiles": "CCC(F)(F)c1nc2ccc(C(F)(F)F)nc2n1-c1ccc2[nH]ncc2c1", "note": "[Example 232, 2-(1,1-Difluoropropyl)-3-(1H-indazol-5-yl)-5-(trifluoromethyl)imidazo[4,5-b]pyridine]", "IC50": 15.8}, {"smiles": "O=c1[nH]c2ccc(-n3c(C(F)(F)C(F)(F)F)nc4ccc(C(F)(F)F)nc43)cc2s1", "note": "[Example 233, 6-[2-(1,1,2,2,2-Pentafluoroethyl)-5-(trifluoromethyl)imidazo[4,5-b]pyridin-3-yl]-3H-1,3-benzothiazol-2-one]", "IC50": 0.316}, {"smiles": "O=c1[nH]c2ccc(-n3c(C(F)F)nc4ccc(C(F)(F)F)nc43)cc2s1", "note": "[Example 234, 6-[2-(Difluoromethyl)-5-(trifluoromethyl)imidazo[4,5-b]pyridin-3-yl]-3H-1,3-benzothiazol-2-one]", "IC50": 0.0794}, {"smiles": "O=c1[nH]c2ccc(-n3c(C(F)F)nc4ccc(C(F)(F)F)nc43)cc2o1", "note": "[Example 235, 6-[2-(Difluoromethyl)-5-(trifluoromethyl)imidazo[4,5-b]pyridin-3-yl]-3H-1,3-benzoxazol-2-one]", "IC50": 63.1}, {"smiles": "O=c1[nH]c2ccc(-n3c(C(F)(F)F)nc4ccc(C(F)(F)F)nc43)cc2o1", "note": "[Example 236, 6-[2,5-Bis(trifluoromethyl)imidazo[4,5-b]pyridin-3-yl]-3H-1,3-benzoxazol-2-one]", "IC50": 6.31}, {"smiles": "Fc1n[nH]c2ccc(-n3c(C(F)(F)F)nc4ccc(C(F)(F)F)nc43)cc12", "note": "[Example 237, 3-(3-Fluoro-1H-indazol-5-yl)-2,5-bis(trifluoromethyl)imidazo[4,5-b]pyridine]", "IC50": 2.51}, {"smiles": "FC(F)c1ccc2nc(C(F)(F)F)n(-c3ccc4[nH]ncc4c3)c2n1", "note": "[Example 238, 5-(Difluoromethyl)-3-(1H-indazol-5-yl)-2-(trifluoromethyl)imidazo[4,5-b]pyridine]", "IC50": 0.398}]}]}
